{
  "source": "patent US4774232A",
  "about": "“Bile-substituting method of treatment for the promotion of fat digestion” (Chinoin Gyogyszer Es Vegyeszeti Termak Ek Gyara Rt, priority 1985, dated 1988)",
  "key": {"[1]": {"tested_on": "lipase (pancreas suspension)", "assay": "In vitro enzymatic hydrolysis of triglycerides: olive oil, pancreas suspension", "type": "biochemical", "conditions": "for 0.005 N NaOH consumed: series Bile I, olive oil, pancreas suspension, 37° C.", "description": "(§1) In an aqueous medium, lipase is capable to split triglycerides only at an extraordinarily low rate. Therefore, an organic solvent should be added to the system, by which the solubility of the triglycerides is increased, but the enzyme activity is diminished. Alternatively, some type of detergent, suitably bile has to be used. The effect of bile was compared to that of DIMEB at 37° C. in such a way that, the quantity of the formed free fatty acids in the samples taken from the reaction mixture at various intervals was titrated by using sodium hydroxide solution. The composition of the reaction mixture was as follows:\n(§2) a total volume of 1.5 ml contained 4 μmoles of the substrate (triolein or olive oil), 10 mg of bovine serum albumin, 75 μmoles of sodium chloride, 50 μmoles of a phosphate buffer solution (pH 7.4) and 0.25 ml of an enzyme solution. A lipase of the Serva Company (in an 1 mg/10 ml solution) or a pancreas powder (0.5 g was suspended in 10 ml of distilled water and the slightly opalescent solution obtained after filtration was used) were employed as enzyme preparations.\n(§3) The composition of the solutions to be tested were as follows:\n(§4) 0.5 ml of buffer+10 mg of serum albumin+3.54 mg of substrate+0.25 ml of enzyme solution plus\n(§5) (a) 0.25 ml of diluted bile+0.50 ml of distilled water; or\n(§6) (b) 50 mg of dimethyl-β-cyclodextrin dissolved in 0.75 ml of water; or […]"}, "lipase": {"tested_on": "lipase", "assay": "In vitro enzymatic hydrolysis of triglycerides: glycerol trioleate, lipase", "type": "biochemical", "conditions": "37° C.", "description": "as §1, §2, §3, §4, §5, §6"}, "bile-deficient rats": {"tested_on": "bile-deficient rats", "assay": "Absorption of 3H-stearic acid with oral DIMEB in bile-deficient rats (Example 11)", "type": "in vivo, CFY female rats", "conditions": "for Radioactivity in 10 ml of blood: 23.5 mg 3H-stearic acid + 60 mg DIMEB oral", "description": "The substitution by DIMEB of the bile in bile-deficiency was studied in rats after ligating the bile duct.\nAfter being starved for 24 hours, the animals (CFY female rats with an average body weight of 150 g) were subjected to a bile duct-ligation under nembutal anaesthesia. The absorption was investigated in the 48th hour after starving the animals overnight. The animals were starved in the course of the examination, too, but received water ad libitum. One group (consisting of 4 animals) received 22.2 mg of ^3 H-stearic acid (specific radioactivity: 92.5 kBq/mg), whereas the other group (consisting of 4 animals) was administered 23.5 mg of ^3 H-stearic acid and 60 mg of DIMEB in 2 ml of distilled water. The substances were suspended ultrasonically in the distilled water. Thereafter, the radioactivity level of the blood was measured at various intervals by using the liquid scintillation method (Table XII)."}, "Water solubility": {"assay": "Water solubility", "type": "physicochemical"}},
  "data": [
    {"compound": "COC[C@H]1O[C@@H]2O[C@H]3[C@H](O)[C@@H](OC)[C@@H](O[C@H]4[C@H](O)[C@@H](OC)[C@@H](O[C@H]5[C@H](O)[C@@H](OC)[C@@H](O[C@H]6[C@H](O)[C@@H](OC)[C@@H](O[C@H]7[C@H](O)[C@@H](OC)[C@@H](O[C@H]8[C@H](O)[C@@H](OC)[C@@H](O[C@H]1[C@H](O)[C@H]2OC)O[C@@H]8COC)O[C@@H]7COC)O[C@@H]6COC)O[C@@H]5COC)O[C@@H]4COC)O[C@@H]3COC", "note": "[DIMEB, heptakis(2,6-di-O-methyl)-β-cyclodextrin]", "values": [
      {"measurement": "Effect on the action of lipase", "setting": "[1]; in vitro, Table 1 overall", "value": "accelerate the action of lipase to a significant extent"},
      {"measurement": "0.005 N NaOH consumed", "setting": "[1]; reaction time 0.5 hour", "value": 1.74, "unit": "mL"},
      {"measurement": "0.005 N NaOH consumed", "setting": "[1]; reaction time 1 hour", "value": 2.00, "unit": "mL"},
      {"measurement": "0.005 N NaOH consumed", "setting": "[1]; reaction time 2 hour", "value": 2.20, "unit": "mL"},
      {"measurement": "0.005 N NaOH consumed", "setting": "[1]; reaction time 19 hour", "value": 4.77, "unit": "mL"},
      {"measurement": "0.005 N NaOH consumed", "setting": "lipase; series Bile II, glycerol trioleate, reaction time 1 hour", "value": 0.34, "unit": "mL"},
      {"measurement": "0.005 N NaOH consumed", "setting": "lipase; series Bile II, glycerol trioleate, reaction time 2 hour", "value": 0.80, "unit": "mL"},
      {"measurement": "0.005 N NaOH consumed", "setting": "lipase; series Bile II, glycerol trioleate, reaction time 3 hour", "value": 1.16, "unit": "mL"},
      {"measurement": "0.005 N NaOH consumed", "setting": "lipase; series Bile II, glycerol trioleate, reaction time 21 hour", "value": 1.86, "unit": "mL"},
      {"measurement": "0.005 N NaOH consumed", "setting": "lipase; series Bile III, glycerol triolate, reaction time 1 hour", "value": 0.28, "unit": "mL"},
      {"measurement": "0.005 N NaOH consumed", "setting": "lipase; series Bile III, glycerol triolate, reaction time 2 hour", "value": 0.68, "unit": "mL"},
      {"measurement": "0.005 N NaOH consumed", "setting": "lipase; series Bile III, glycerol triolate, reaction time 4 hour", "value": 1.20, "unit": "mL"},
      {"measurement": "Radioactivity in 10 ml of blood", "setting": "bile-deficient rats; 1 h, animal 5", "value": 1.18, "unit": "percentage"},
      {"measurement": "Radioactivity in 10 ml of blood", "setting": "bile-deficient rats; 1 h, animal 6", "value": 1.41, "unit": "percentage"},
      {"measurement": "Radioactivity in 10 ml of blood", "setting": "bile-deficient rats; 1 h, animal 7", "value": 1.66, "unit": "percentage"},
      {"measurement": "Radioactivity in 10 ml of blood", "setting": "bile-deficient rats; 1 h, animal 8", "value": 0.50, "unit": "percentage"},
      {"measurement": "Radioactivity in 10 ml of blood", "setting": "bile-deficient rats; 1 h, mean", "value": 1.19, "unit": "percentage"},
      {"measurement": "Radioactivity in 10 ml of blood", "setting": "bile-deficient rats; 2 h, animal 5", "value": 1.46, "unit": "percentage"},
      {"measurement": "Radioactivity in 10 ml of blood", "setting": "bile-deficient rats; 2 h, animal 6", "value": 1.52, "unit": "percentage"},
      {"measurement": "Radioactivity in 10 ml of blood", "setting": "bile-deficient rats; 2 h, animal 7", "value": 1.52, "unit": "percentage"},
      {"measurement": "Radioactivity in 10 ml of blood", "setting": "bile-deficient rats; 2 h, animal 8", "value": 0.64, "unit": "percentage"},
      {"measurement": "Radioactivity in 10 ml of blood", "setting": "bile-deficient rats; 2 h, mean", "value": 1.28, "unit": "percentage"},
      {"measurement": "Radioactivity in 10 ml of blood", "setting": "bile-deficient rats; 3 h, animal 5", "value": 1.29, "unit": "percentage"},
      {"measurement": "Radioactivity in 10 ml of blood", "setting": "bile-deficient rats; 3 h, animal 6", "value": 1.63, "unit": "percentage"},
      {"measurement": "Radioactivity in 10 ml of blood", "setting": "bile-deficient rats; 3 h, animal 7", "value": 1.37, "unit": "percentage"},
      {"measurement": "Radioactivity in 10 ml of blood", "setting": "bile-deficient rats; 3 h, animal 8", "value": 0.61, "unit": "percentage"},
      {"measurement": "Radioactivity in 10 ml of blood", "setting": "bile-deficient rats; 3 h, mean", "value": 1.22, "unit": "percentage"},
      {"measurement": "Radioactivity in 10 ml of blood", "setting": "bile-deficient rats; 4 h, animal 5", "value": 1.42, "unit": "percentage"},
      {"measurement": "Radioactivity in 10 ml of blood", "setting": "bile-deficient rats; 4 h, animal 6", "value": 1.67, "unit": "percentage"},
      {"measurement": "Radioactivity in 10 ml of blood", "setting": "bile-deficient rats; 4 h, animal 7", "value": 1.56, "unit": "percentage"},
      {"measurement": "Radioactivity in 10 ml of blood", "setting": "bile-deficient rats; 4 h, animal 8", "value": 0.60, "unit": "percentage"},
      {"measurement": "Radioactivity in 10 ml of blood", "setting": "bile-deficient rats; 4 h, mean", "value": 1.31, "unit": "percentage"},
      {"measurement": "Radioactivity in 10 ml of blood", "setting": "bile-deficient rats; 5 h, animal 5", "value": 1.39, "unit": "percentage"},
      {"measurement": "Radioactivity in 10 ml of blood", "setting": "bile-deficient rats; 5 h, animal 6", "value": 1.73, "unit": "percentage"},
      {"measurement": "Radioactivity in 10 ml of blood", "setting": "bile-deficient rats; 5 h, animal 7", "value": 1.54, "unit": "percentage"},
      {"measurement": "Radioactivity in 10 ml of blood", "setting": "bile-deficient rats; 5 h, animal 8", "value": 0.69, "unit": "percentage"},
      {"measurement": "Radioactivity in 10 ml of blood", "setting": "bile-deficient rats; 5 h, mean", "value": 1.34, "unit": "percentage"},
      {"measurement": "Radioactivity in 10 ml of blood", "setting": "bile-deficient rats; 6 h, animal 5", "value": 1.41, "unit": "percentage"},
      {"measurement": "Radioactivity in 10 ml of blood", "setting": "bile-deficient rats; 6 h, animal 6", "value": 1.92, "unit": "percentage"},
      {"measurement": "Radioactivity in 10 ml of blood", "setting": "bile-deficient rats; 6 h, animal 7", "value": 1.76, "unit": "percentage"},
      {"measurement": "Radioactivity in 10 ml of blood", "setting": "bile-deficient rats; 6 h, animal 8", "value": 0.73, "unit": "percentage"},
      {"measurement": "Radioactivity in 10 ml of blood", "setting": "bile-deficient rats; 6 h, mean", "value": 1.45, "unit": "percentage"},
      {"measurement": "Radioactivity in 10 ml of blood", "setting": "bile-deficient rats; 8 h, animal 5", "value": 1.43, "unit": "percentage"},
      {"measurement": "Radioactivity in 10 ml of blood", "setting": "bile-deficient rats; 8 h, animal 6", "value": 1.90, "unit": "percentage"},
      {"measurement": "Radioactivity in 10 ml of blood", "setting": "bile-deficient rats; 8 h, animal 7", "value": 1.85, "unit": "percentage"},
      {"measurement": "Radioactivity in 10 ml of blood", "setting": "bile-deficient rats; 8 h, animal 8", "value": 0.72, "unit": "percentage"},
      {"measurement": "Radioactivity in 10 ml of blood", "setting": "bile-deficient rats; 8 h, mean", "value": 1.47, "unit": "percentage"},
      {"measurement": "Radioactivity in 10 ml of blood", "setting": "bile-deficient rats; 10 h, animal 5", "value": 1.57, "unit": "percentage"},
      {"measurement": "Radioactivity in 10 ml of blood", "setting": "bile-deficient rats; 10 h, animal 6", "value": 1.56, "unit": "percentage"},
      {"measurement": "Radioactivity in 10 ml of blood", "setting": "bile-deficient rats; 10 h, animal 7", "value": 1.45, "unit": "percentage"},
      {"measurement": "Radioactivity in 10 ml of blood", "setting": "bile-deficient rats; 10 h, animal 8", "value": 0.89, "unit": "percentage"},
      {"measurement": "Radioactivity in 10 ml of blood", "setting": "bile-deficient rats; 10 h, mean", "value": 1.37, "unit": "percentage"},
      {"measurement": "Radioactivity in 10 ml of blood", "setting": "bile-deficient rats; 24 h, animal 5", "value": 1.50, "unit": "percentage"},
      {"measurement": "Radioactivity in 10 ml of blood", "setting": "bile-deficient rats; 24 h, animal 6", "value": 1.94, "unit": "percentage"},
      {"measurement": "Radioactivity in 10 ml of blood", "setting": "bile-deficient rats; 24 h, animal 7", "value": 1.59, "unit": "percentage"},
      {"measurement": "Radioactivity in 10 ml of blood", "setting": "bile-deficient rats; 24 h, animal 8", "value": 1.95, "unit": "percentage"},
      {"measurement": "Radioactivity in 10 ml of blood", "setting": "bile-deficient rats; 24 h, mean", "value": 1.74, "unit": "percentage"},
      {"measurement": "Blood level relative to animals treated with stearic acid alone", "setting": "bile-deficient rats; 24th hour", "value": 2, "unit": "times"},
      {"measurement": "Blood radioactivity relative to animals treated with stearic acid alone", "setting": "bile-deficient rats; time not given", "value": 4.4, "unit": "times"},
      {"measurement": "Water solubility", "setting": "Water solubility", "value": "very high water solubility"}
    ]}
  ]
}
